# Measurements taken from patent publication US9481676B2, “Azepino[4,5-B]indoles and methods of use” (Medivation Technologies, Inc., priority 2008, dated 2016).
# Target: T1, human recombinant adrenergic α2B receptor (Homo sapiens, UniProt P18089)
# T1 construct: expressed in transfected cells; host or cells: CHO-K1 cells
# T1 sequence (P18089 1-450): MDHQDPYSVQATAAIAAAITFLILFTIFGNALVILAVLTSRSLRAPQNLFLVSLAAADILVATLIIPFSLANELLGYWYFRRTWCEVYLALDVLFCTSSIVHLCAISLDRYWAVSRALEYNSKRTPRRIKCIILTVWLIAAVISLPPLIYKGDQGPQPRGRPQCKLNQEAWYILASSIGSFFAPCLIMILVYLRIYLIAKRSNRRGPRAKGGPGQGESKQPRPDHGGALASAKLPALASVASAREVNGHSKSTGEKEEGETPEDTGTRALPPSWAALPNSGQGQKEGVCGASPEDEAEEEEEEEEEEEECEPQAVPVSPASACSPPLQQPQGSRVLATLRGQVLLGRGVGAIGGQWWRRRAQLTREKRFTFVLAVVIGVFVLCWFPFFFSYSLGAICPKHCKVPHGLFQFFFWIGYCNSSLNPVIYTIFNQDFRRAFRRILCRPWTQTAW
# Assay: Adrenergic alpha2B radioligand binding ([3H]Rauwolscine)
# Conditions: compound at 1 μM; read-out: Adrenergic (1 μM) α2B, percent inhibition of specific binding
# Description: To evaluate in radioligand binding assays the activity of compounds of the invention, human recombinant adrenergic α2B receptor expressed in Chinese hamster ovary (CHO-K1) cells (Uhlen S et al. Eur J. Pharmacol. 343(1):93, 1998) in a modified Tris-HCl buffer (50 mM Tris-HCl, pH 7.4, 12.5 mM MgCl2, 1 mM EDTA, 0.2% BSA) was used. Compounds of the invention were incubated with 2.5 nM [^3H]Rauwolscine for 60 min. at 25° C. Non-specific binding was estimated in the presence of 10 μM Prozosin. Receptor proteins were filtered and washed, the filters were then counted to determine [^3H]Rauwolscine specifically bound. Compounds were screened at 1 μM or lower, using 1% DMSO as vehicle. Biochemical assay results are presented as the percent inhibition of specific binding in Table 5.
row,SMILES,inhibition at 1 µM
1,"COc1ccc(/C=C/n2c3c(c4cc(C)ccc42)CCN(C)CC3)c(F)c1 [Compound No. 230, (E)-6-(2-fluoro-4-methoxystyryl)-3,9-dimethyl-1,2,3,4,5,6-hexahydroazepino[4,5-b]indole]",99%
2,"Cc1ccc2c(c1)c1c(n2CC(=O)N(C)C2CCCCC2)CCN(C)CC1 [Compound No. 232, N-cyclohexyl-2-(3,9-dimethyl-2,3,4,5-tetrahydroazepino[4,5-b]indol-6(1H)-yl)-N-methylacetamide]",39%
3,"Cc1ccc2c(c1)c1c(n2/C=C/c2ccccc2F)CCN(C)CC1 [Compound No. 233, (E)-6-(2-fluorostyryl)-3,9-dimethyl-1,2,3,4,5,6-hexahydroazepino[4,5-b]indole]",100%
4,"CN1CCc2c(n(/C=C/c3ccc(F)cc3)c3ccc(Cl)cc23)CC1 [Compound No. 234, (E)-9-chloro-6-(4-fluorostyryl)-3-methyl-1,2,3,4,5,6-hexahydroazepino[4,5-b]indole]",100%
5,"Cc1ccc2c(c1)c1c(n2/C=C/c2ccc(Cl)cc2)CCN(C)CC1 [Compound No. 235, (E)-6-(4-chlorostyryl)-3,9-dimethyl-1,2,3,4,5,6-hexahydroazepino[4,5-b]indole]",98%
6,"CN1CCc2c(n(/C=C/c3ccc(F)c(F)c3)c3ccc(Cl)cc23)CC1 [Compound No. 236, (E)-9-chloro-6-(3,4-difluorostyryl)-3-methyl-1,2,3,4,5,6-hexahydroazepino[4,5-b]indole]",103%
7,"CN1CCc2c(n(CCc3ccccc3F)c3ccccc23)CC1 [Compound No. 237, 6-(2-fluorophenethyl)-3-methyl-1,2,3,4,5,6-hexahydroazepino[4,5-b]indole]",93%
8,"C/C(=C\n1c2c(c3cc(C)ccc31)CCN(C)CC2)c1ccc(Cl)cc1Cl [Compound No. 238, (E)-6-(2-(2,4-dichlorophenyl)prop-1-enyl)-3,9-dimethyl-1,2,3,4,5,6-hexahydroazepino[4,5-b]indole]",103%
9,"C/C(=C\n1c2c(c3cc(Cl)ccc31)CCN(C)CC2)c1ccc(Cl)cc1Cl [Compound No. 239, (E)-9-chloro-6-(2-(2,4-dichlorophenyl)prop-1-enyl)-3-methyl-1,2,3,4,5,6-hexahydroazepino[4,5-b]indole]",107%
10,"CN1CCc2c(n(C#Cc3ccc(F)cc3)c3ccc(Cl)cc23)CC1 [Compound No. 281, 9-chloro-6-((4-fluorophenyl)ethynyl)-3-methyl-1,2,3,4,5,6-hexahydroazepino[4,5-b]indole]",99%
11,"CN1CCc2c(n(C#Cc3ccc(Cl)cc3)c3ccc(Cl)cc23)CC1 [Compound No. 282, 9-chloro-6-((4-chlorophenyl)ethynyl)-3-methyl-1,2,3,4,5,6-hexahydroazepino[4,5-b]indole]",102%
12,"Cc1ccc2c(c1)c1c(n2C(=O)Cc2ccc(F)cc2)CCN(C)CC1 [Compound No. 285, 1-(3,9-dimethyl-2,3,4,5-tetrahydroazepino[4,5-b]indol-6(1H)-yl)-2-(4-fluorophenyl) ethanone]",75%
